Data on 20 compounds can be found in paper PMC7464485, “Antimicrobial Activities of Highly Bioavailable Organic Salts and Ionic Liquids from Fluoroquinolones” (Pharmaceutics, 2020).

The term IC50 denotes the point on the concentration scale where inhibition reaches its midpoint.

In brackets after ≈: the same amount, converted by molar mass. Like-named read-outs stand apart in the source and are kept apart here.

Series [1] relates to Bacillus subtilis (ATCC 6633). Kind of series: Antimicrobial activity (growth, OD 600 nm). It counts as cell-based.
Series [2] has as its system Klebsiella pneumoniae (ATCC 11296). Description: Antimicrobial activity (growth, OD 600 nm). Format: cell-based.
For series [3], the system named is Staphylococcus aureus (ATCC 25923). Description: Antimicrobial activity (growth, OD 600 nm). It counts as cell-based.
The nature of series [4]: Critical micelle concentration via ionic conductivity. It counts as physicochemical. As to conditions: for CMC: in water at 25 °C.
The test system of the next series is 3T3 mouse fibroblasts. Description: Cytotoxicity on 3T3 cells (MTT). It counts as cell-based.
The conditions of series [5]: cited from earlier work.
The conditions of series [6]: in water at 25 °C, cited from earlier work.
[7] abbreviates: 0.001–10 µM, read-out: IC50 B. subtilis.
Setting [8] is: relative decrease of inhibitory concentration vs ciprofloxacin.
Where [9] appears, read: 0.001–10 µM, read-out: IC50 K. pneumoniae.
Setting [10] is: 0.001–10 µM, read-out: IC50 S. aureus.
Where [11] appears, read: Bacillus subtilis, ATCC6633, 0.001–10 µM, read-out: IC50 B. subtilis.
Setting [12] is: Klebsiella pneumoniae, ATCC11296, 0.001–10 µM, read-out: IC50 K. pneumoniae.
[13] abbreviates: Staphylococcus aureus, ATCC25923, 0.001–10 µM, read-out: IC50 S. aureus.
The mark [14] stands for this setting: relative decrease of inhibitory concentration vs norfloxacin.

`C[N+](C)(C)CCO.O=C([O-])c1cn(C2CC2)c2cc(N3CCNCC3)c(F)cc2c1=O` [[Ch][Cip]]: the IC50 in series [1] (setting [7]) came out at 20.6 nM; in series [2] (setting [9]), 51.1 nM; in series [3] (setting [10]) it was 181 nM. Further, the “RDIC50 B. subtilis” value in series [1] (setting [8]) was 0.2. Further, the “RDIC50 S. aureus” value in series [3] (setting [8]) stood at 0.2.

Take `C[n+]1ccn(CCO)c1` [[C2OHmim]Cl, reference compound]: the 50% inhibitory concentration (IC50) in series [1] (setting [11]), in series [2] (setting [12]) and in series [3] (setting [13]) was more than 10000 nM throughout.

Regarding `COCC[n+]1ccn(C)c1.O=C([O-])c1cn(C2CC2)c2cc(N3CCNCC3)c(F)cc2c1=O` [[C3OMIM][Cip]], the IC50 turned out to be 21.7 nM in series [1] (setting [7]), 47.6 nM in series [2] (setting [9]) and 82 nM in series [3] (setting [10]). Also, the “RDIC50 B. subtilis” value in series [1] (setting [8]) is given as 0.2. Moreover, in series [2] (setting [8]), the “RDIC50 K. pneumoniae” value stood at 4.1. In addition, in series [3] (setting [8]), the “RDIC50 S. aureus” value is on record as 0.4.

Consider `Cc1n(CCO)cc[n+]1C` [[C2OHDMIM]Cl, reference compound], for which the IC50 in series [1] (setting [11]), in series [2] (setting [12]) and in series [3] (setting [13]) was more than 10000 nM each time.

`CCn1cc[n+](C)c1` [[EMIM]Br, reference compound]: the IC50 in series [1] (setting [11]), in series [2] (setting [12]) and in series [3] (setting [13]) was more than 10000 nM in each case.

Regarding `CCn1cc(C(=O)[O-])c(=O)c2cc(F)c(N3CCNCC3)cc21.C[N+](C)(C)CCO` [[Ch][Nor]], the half-inhibitory concentration (IC50) is 95.5 nM in series [1] (setting [7]), 199 nM in series [2] (setting [9]) and 127 nM in series [3] (setting [10]). The “RDIC50 B. subtilis” value in series [1] (setting [14]) is listed as 1.2. Further, in series [2] (setting [14]), the “RDIC50 K. pneumoniae” value is on record as 1.3. The “RDIC50 S. aureus” value in series [3] (setting [14]) was found to be 1.0.

As to `CCn1cc[n+](C)c1.O=C([O-])c1cn(C2CC2)c2cc(N3CCNCC3)c(F)cc2c1=O` [[EMIM][Cip]], the IC50 is 16.2 nM in series [1] (setting [7]), 64.8 nM in series [2] (setting [9]) and 24.2 nM in series [3] (setting [10]). Moreover, the “RDIC50 B. subtilis” value in series [1] (setting [8]) was found to be 0.2. Also, the “RDIC50 K. pneumoniae” value in series [2] (setting [8]) came out at 3.0. In addition, the “RDIC50 S. aureus” value in series [3] (setting [8]) is reported as 1.2.

Take `CCCCCCCCCCCCCCCC[n+]1ccccc1.CCn1cc(C(=O)[O-])c(=O)c2cc(F)c(N3CCNCC3)cc21` [[C16Py][Nor]]: the IC50 was 87.3 nM in series [1] (setting [7]); 203 nM in series [2] (setting [9]); 5170 nM with 3T3 mouse fibroblasts; 5160 nM with 3T3 mouse fibroblasts (0.03–10 µM, 24 h); 10.8 nM in series [3] (setting [10]). Further, the “RDIC50 B. subtilis” value in series [1] (setting [14]) came to 1.3. For the same compound, the “increase in activity against K. pneumoniae vs norfloxacin” value in series [2] stood at 30%. In series [2] (setting [14]), the “RDIC50 K. pneumoniae” value came out at 1.3. Also, the “decrease of CMC in comparison with [C16Py]Cl” value in series [4] is reported as 95%. This compound yielded a CMC in series [4] of 0.0539 mmol/L. Also, the “RDIC50 S. aureus” value in series [3] (setting [14]) is on record as 11.4.

Consider `CCn1cc(C(=O)O)c(=O)c2cc(F)c(N3CCNCC3)cc21` [Norfloxacin, norfloxacin, reference compound], for which the half-inhibitory concentration (IC50) in series [1] (0.001–10 µM, listed as Nor, read-out: IC50 B. subtilis) is 117 nM; in series [1] (setting [11]), 97.7 nM; in series [2] (setting [12]), 255 nM; in series [3] (setting [13]), 123 nM. Besides, the Solubility in water is 370 µg/mL (≈ 1160 µM) in series [5] (25 °C, neutral form); 540 ± 20 µg/mL (≈ 1690 µM) in series [5] (25 °C, value outside parentheses); 850 ± 40 µg/mL (≈ 2660 µM) in series [5] (37 °C, value in parentheses); 840 ± 20 µg/mL (≈ 2630 µM) in series [5] (37 °C, value outside parentheses).

For the compound `C[N+](C)(C)CCO.[Cl-]` [[Ch]Cl, reference compound], the IC50 in series [1] (Bacillus subtilis, ATCC6633, read-out: IC50 B. subtilis) was more than 10000 nM; in series [2] (Klebsiella pneumoniae, ATCC11296, read-out: IC50 K. pneumoniae, 0.001–10 µM), more than 10000 nM; in series [3] (Staphylococcus aureus, ATCC25923, read-out: IC50 S. aureus) it was more than 10000 nM.

Turning to `CCCCCCCCCCCCCCCC[n+]1ccccc1.[Cl-]` [[C16Py]Cl], the CMC in series [4] is 1.063 mmol/L; in series [6] (ref 49), 1.067 mmol/L; in series [6] (ref 50), 0.96 mmol/L.

On to `Cc1n(CCO)cc[n+]1C.O=C([O-])c1cn(C2CC2)c2cc(N3CCNCC3)c(F)cc2c1=O` [[C2OHDMIM][Cip]], for which the IC50 in series [1] (setting [7]) came to 12.3 nM; in series [2] (setting [9]) it was 51 nM; in series [3] (setting [10]), 21.2 nM. Further, in series [1] (setting [8]), the “RDIC50 B. subtilis” value amounted to 0.3. The “RDIC50 K. pneumoniae” value in series [2] (setting [8]) stood at 3.9. Further, in series [3] (setting [8]), the “RDIC50 S. aureus” value stood at 1.4.

`CCn1cc(C(=O)[O-])c(=O)c2cc(F)c(N3CCNCC3)cc21.COCC[n+]1ccn(C)c1` [[C3OMIM][Nor]]: the IC50 in series [1] (setting [7]) is 68.1 nM; in series [2] (setting [9]), 224 nM; in series [3] (setting [10]), 107 nM. Further, the “RDIC50 B. subtilis” value in series [1] (setting [14]) worked out at 1.7. Also, the “RDIC50 K. pneumoniae” value in series [2] (setting [14]) worked out at 1.1. The “RDIC50 S. aureus” value in series [3] (setting [14]) is on record as 1.1.

On to `CCCCCCCCCCCCCCCC[n+]1ccccc1.O=C([O-])c1cn(C2CC2)c2cc(N3CCNCC3)c(F)cc2c1=O` [[C16Py][Cip]], for which the “decrease of activity against B. subtilis in comparison with ciprofloxacin” value in series [1] is on record as 40%. Further, the IC50 in series [1] (setting [7]) was 6.07 nM; in series [2] (setting [9]), 9.88 nM; in the series with 3T3 mouse fibroblasts, 4720 nM; in the series on 3T3 mouse fibroblasts (0.03–10 µM, 24 h), 4720 nM; in series [3] (setting [10]), 1430 nM. The “RDIC50 B. subtilis” value in series [1] (setting [8]) amounted to 0.6. The “RDIC50 K. pneumoniae” value in series [2] (setting [8]) was 19.9. Moreover, the CMC in series [4] was determined as 0.0816 mmol/L. Further, the “activity against S. aureus” value in series [3] was “almost no activity”. Further, in series [3] (setting [8]), the “RDIC50 S. aureus” value is given as 0.0.

As to `COCCn1cc[n+](C)c1` [[C3Omim]Cl, reference compound], the half-maximal inhibitory concentration (IC50) in series [1] (setting [11]), in series [2] (setting [12]) and in series [3] (setting [13]) was more than 10000 nM each time.

As for `O=C(O)c1cn(C2CC2)c2cc(N3CCNCC3)c(F)cc2c1=O` [Ciprofloxacin, ciprofloxacin, reference compound], the values for the IC50 in series [1] (setting [11]), in series [2] (setting [12]) and in series [3] (setting [13]) were 3.84 nM, 196 nM and 29.2 nM, respectively.

On to `CCn1cc(C(=O)[O-])c(=O)c2cc(F)c(N3CCNCC3)cc21.CCn1cc[n+](C)c1` [[EMIM][Nor]], for which the figures for the IC50 in series [1] (setting [7]), in series [2] (setting [9]) and in series [3] (setting [10]) were 24.5 nM, 208 nM and 211 nM, respectively. Moreover, the “RDIC50 B. subtilis” value in series [1] (setting [14]) is reported as 4.8. Also, the “RDIC50 K. pneumoniae” value in series [2] (setting [14]) turned out to be 1.2. Besides, the “RDIC50 S. aureus” value in series [3] (setting [14]) is on record as 0.6.

For the compound `CCn1cc(C(=O)[O-])c(=O)c2cc(F)c(N3CCNCC3)cc21.C[n+]1ccn(CCO)c1` [[C2OHMIM][Nor]], the IC50 in series [1] (setting [7]) turned out to be 88.6 nM; in series [2] (setting [9]), 201 nM; in series [3] (setting [10]), 91.7 nM. The “RDIC50 B. subtilis” value in series [1] (setting [14]) is on record as 1.3. Moreover, in series [2] (setting [14]), the “RDIC50 K. pneumoniae” value was 1.3. In addition, in series [3] (setting [14]), the “RDIC50 S. aureus” value was 1.3.

Consider `CCn1cc(C(=O)[O-])c(=O)c2cc(F)c(N3CCNCC3)cc21.Cc1n(CCO)cc[n+]1C` [[C2OHDMIM][Nor]], for which, in series [1], the “lost activity against B. subtilis vs norfloxacin” value is given as 20%. The results for the IC50 in series [1] (setting [7]), in series [2] (setting [9]) and in series [3] (setting [10]) were 149 nM, 178 nM and 79.5 nM, respectively. Moreover, the “RDIC50 B. subtilis” value in series [1] (setting [14]) came out at 0.8. Moreover, in series [2], the “increase in activity against K. pneumoniae vs norfloxacin” value is on record as 40%. Besides, the “RDIC50 K. pneumoniae” value in series [2] (setting [14]) is recorded as 1.4. Moreover, the “increased activity against S. aureus vs norfloxacin” value in series [3] amounted to 60%. Also, the “RDIC50 S. aureus” value in series [3] (setting [14]) was found to be 1.6.

On to `C[n+]1ccn(CCO)c1.O=C([O-])c1cn(C2CC2)c2cc(N3CCNCC3)c(F)cc2c1=O` [[C2OHMIM][Cip]], for which the values for the IC50 in series [1] (setting [7]) and in series [2] (setting [9]) were 15.8 nM and 36.4 nM, respectively. The “RDIC50 B. subtilis” value in series [1] (setting [8]) came to 0.2. Besides, the “RDIC50 K. pneumoniae” value in series [2] (setting [8]) is listed as 5.4.
